Assay results from patent publication US6472350B1, “Utilization of 3-phenyl-pyrones for pest control” (Bayer Aktiengesellschaft, priority 1998, dated 2002).

Legend:
Type in all cases: in vivo
[1] = test system: peach aphid (Myzus persicae); experiment: Myzus test; conditions: active compound concentration 0.1 %, infested cabbage leaves (Brassica oleracea) dipped
Method: Myzus Test Solvent: 7 parts by weight of dimethylformamide Emulsifier: 1 part by weight of alkylaryl polyglycol ether To produce a suitable preparation of active compound, 1 part by weight of active compound is mixed with the stated amounts of solvent and emulsifier, and the concentrate is diluted with emulsifier-containing water to the desired concentration. Cabbage leaves (Brassica oleracea) which are heavily infested by the peach aphid (Myzus persicae) are treated by being dipped into the preparation of active compound of the desired concentration. After the desired period of time, the kill in % is determined. 100% means that all aphids have been killed; 0% means that none of the aphids have been killed.

[2] = test system: green rice leaf hoppers (Nephotettix cincticeps); experiment: Nephotettix test; conditions: active compound concentration 0.1 %, rice seedlings (Oryza sativa) dipped
Method: Nephotettix Test Solvent: 7 parts by weight of dimethylformamide Emulsifier: 1 part by weight of alkylaryl polyglycol ether To produce a suitable preparation of active compound, 1 part by weight of active compound is mixed with the stated amounts of solvent and emulsifier, and the concentrate is diluted with emulsifier-containing water to the desired concentration. Rice seedlings (Oryza sativa) are treated by being dipped into the active compound preparation of the desired concentration and are populated with green rice leaf hoppers (Nephotettix cincticeps) while the leaves are still moist. After the desired period of time, the kill in % is determined. 100% means that all leaf hoppers have been killed; 0% means that none of the leaf hoppers have been killed.

[3] = test system: larvae of the mustard beetle (Phaedon cochleariae); experiment: Phaedon larvae test; conditions: active compound concentration 0.1 %, cabbage leaves (Brassica oleracea) dipped
Method: Phaedon Larvae Test Solvent: 7 parts by weight of dimethylformamide Emulsifier: 1 part by weight of alkylaryl polyglycol ether To produce a suitable preparation of active compound, 1 part by weight of active compound is mixed with the stated amounts of solvent and emulsifier, and the concentrate is diluted with emulsifier-containing water to the desired concentration. Cabbage leaves (Brassica oleracea) are treated by being dipped into the preparation of active compound of the desired concentration and are populated with larvae of the mustard beetle (Phaedon cochleariae) while the leaves are still moist. After the desired period of time, the kill in % is determined. 100% means that all beetle larvae have been killed; 0% means that none of the beetle larvae have been killed.

[4] = test system: caterpillars of the diamond back moth (Plutella xylostella); experiment: Plutella test; conditions: active compound concentration 0.1 %, cabbage leaves (Brassica oleracea) dipped

## Cc1cc(F)ccc1-c1c(O)c(C)c(-c2ccccn2)oc1=O [drawing 10]
[1]
  Kill in % after 6 d: 98%

## Cc1cc(Cl)ccc1-c1c(O)c(C)c(-c2ccc(F)cc2)oc1=O [drawing 11]
[2]
  Kill in % after 6 d: 100%

## Cc1cc(F)ccc1-c1c(O)c(C)c(-c2ccccn2)oc1=O [drawing 12]
[3]
  Kill in % after 7 d: 100%

## Cc1cc(Cl)ccc1-c1c(O)c(C)c(-c2ccc(F)cc2)oc1=O [drawing 13]
[4]
  Kill in % after 7 d: 100%

## Cc1cc(F)ccc1-c1c(O)c(C)c(-c2ccccn2)oc1=O [drawing 14]
[4]
  Kill in % after 7 d: 100%
